From patent US20260285850A1, “SUBSTITUTED OXAZOLIDINONES AND IMIDAZOLINONES AS HERBICIDES” (FMC CORPORATION, priority 2023, published 2026)

Experiments:
Type in all cases: in vivo
[1] = tested on: green foxtail (Setaria viridis); assay: Test A postemergence application, visual injury rating 0-100
Procedure, shortened: (§1)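 Compound in a non-phytotoxic, surfactant-containing solvent is applied either as a directed soil spray before seedlings emerge or onto emerged plants 2-10 cm tall; pots hold a loam-sand blend. Plants grow 10 days under greenhouse conditions and are rated by eye against untreated controls (0 no effect, 100 complete control).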

[2] = tested on: wheat (Triticum aestivum); assay: as above
Procedure, shortened: as §1

[3] = tested on: palmer (palmer amaranth, palmer pigweed, Amaranthus palmeri); assay: as above
Procedure, shortened: as §1

kochia (Bassia scoparia) [4] = assay: as above
Procedure, shortened: as §1

[5] = tested on: ragweed (common ragweed, Ambrosia artemisiifolia); assay: as above
Procedure, shortened: as §1

[6] = tested on: oat, wild (wild oat, Avena fatua); assay: as above
Procedure, shortened: as §1

[7] = tested on: ryegrass, Italian (italian ryegrass, Lolium multiflorum); assay: as above
Procedure, shortened: as §1

corn (Zea mays) [8] = assay: as above
Procedure, shortened: as §1

soybean (Glycine max) [9] = assay: as above
Procedure, shortened: as §1

[10] = tested on: horseweed (Erigeron canadensis); assay: as above
Procedure, shortened: as §1

[11] = tested on: blackgrass (Alopecurus myosuroides); assay: as above
Procedure, shortened: as §1

[12] = tested on: barnyardgrass (Echinochloa crus-galli); assay: as above
Procedure, shortened: as §1

[13] = tested on: ducksalad (Heteranthera limosa); assay: Test B flooded paddy test, visual plant response rating 0-100; settings: 250 g ai/ha, Flood, applied to paddy water, evaluated after 13 days
Procedure, shortened: (§2)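 Plants were grown to the 2-leaf stage, then pots were flooded to 3 cm above the soil and compound was applied directly to the paddy water, with that depth kept throughout.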

[14] = tested on: barnyardgrass (Echinochloa crusgalli); assay: as above; settings: 250 g ai/ha, Flood, applied to paddy water, evaluated after 13 days
Procedure, shortened: as §2

[15] = tested on: sedge, umbrella (small-flower umbrella sedge, Cyperus difformis); assay: as above; settings: 250 g ai/ha, Flood, applied to paddy water, evaluated after 13 days
Procedure, shortened: as §2

rice (Oryza sativa) = assay: as above; settings: 250 g ai/ha, Flood, applied to paddy water, evaluated after 13 days
Procedure, shortened: as §2

[16] = tested on: green foxtail (Setaria viridis); assay: Test A preemergence soil spray, visual injury rating 0-100; settings: 10 days
Procedure, shortened: as §1

[17] = tested on: wheat (Triticum aestivum); assay: as above; settings: 10 days
Procedure, shortened: as §1

[18] = tested on: palmer (palmer amaranth, palmer pigweed, Amaranthus palmeri); assay: as above; settings: 10 days
Procedure, shortened: as §1

kochia (Bassia scoparia) [19] = assay: as above; settings: 10 days
Procedure, shortened: as §1

[20] = tested on: ragweed (common ragweed, Ambrosia artemisiifolia); assay: as above; settings: 10 days
Procedure, shortened: as §1

[21] = tested on: oat, wild (wild oat, Avena fatua); assay: as above; settings: 10 days
Procedure, shortened: as §1

[22] = tested on: ryegrass, Italian (italian ryegrass, Lolium multiflorum); assay: as above; settings: 10 days
Procedure, shortened: as §1

corn (Zea mays) [23] = assay: as above; settings: 10 days
Procedure, shortened: as §1

soybean (Glycine max) [24] = assay: as above; settings: 10 days
Procedure, shortened: as §1

[25] = tested on: blackgrass (Alopecurus myosuroides); assay: as above; settings: 10 days
Procedure, shortened: as §1

[26] = tested on: barnyardgrass (Echinochloa crus-galli); assay: as above; settings: 10 days
Procedure, shortened: as §1

[27] = 62 g ai/ha, postemergence, 10 days, 0 = no effect, 100 = complete control
[28] = Postemergence, 16 g ai/ha, greenhouse 10 days, 0 no effect, 100 complete control
[29] = 62 g ai/ha, 0 = no effect, 100 = complete control

## CC1(C(=O)NC2CC=C(C(=O)OCC3CC3)C2)CN(c2cc(F)cc(Cl)c2)C(=O)O1 (centres unmarked) [Compound 144]
[1]; [27]
  Foxtail, Green plant response rating (0-100): 90
[1]; [28]
  Foxtail, Green plant response rating (0 to 100 scale): 90
[2]; [27]
  Wheat plant response rating (0-100): 90
[2]; [28]
  Wheat plant response rating (0 to 100 scale): 60
[3]; [27]
  Pigweed, Palmer plant response rating (0-100): 90
[3]; [28]
  Pigweed, Palmer plant response rating (0 to 100 scale): 70
Kochia (Bassia scoparia) [4]; [27]
  Kochia plant response rating (0-100): 80
Kochia (Bassia scoparia) [4]; [28]
  Kochia plant response rating (0 to 100 scale): 80
[5]; [27]
  Ragweed plant response rating (0-100): 50
[5]; [28]
  Ragweed plant response rating (0 to 100 scale): 20
[6]; [27]
  Oat, Wild plant response rating (0-100): 40
[6]; [28]
  Oat, Wild plant response rating (0 to 100 scale): 20
[7]; [27]
  Ryegrass, Italian plant response rating (0-100): 90
[7]; [28]
  Ryegrass, Italian plant response rating (0 to 100 scale): 60
Corn (Zea mays) [8]; [27]
  Corn plant response rating (0-100): 100
Corn (Zea mays) [8]; [28]
  Corn plant response rating (0 to 100 scale): 100
Soybean (Glycine max) [9]; [27]
  Soybean plant response rating (0-100): 80
Soybean (Glycine max) [9]; [28]
  Soybean plant response rating (0 to 100 scale): 80
[10]; [27]
  Horseweed plant response rating (0-100): 80
[10]; [28]
  Horseweed plant response rating (0 to 100 scale): 50
[11]; [27]
  Blackgrass plant response rating (0-100): 100
[11]; [28]
  Blackgrass plant response rating (0 to 100 scale): 70
[12]; [27]
  Barnyardgrass plant response rating (0-100): 100
[12]; [28]
  Barnyardgrass plant response rating (0 to 100 scale): 90
[13]
  Plant response rating, Ducksalad (0 to 100 scale, 0 is no effect and 100 is complete control): 80
[14]
  Plant response rating, Barnyardgrass (0 to 100 scale, 0 is no effect and 100 is complete control): 95
[15]
  Plant response rating, Sedge, Umbrella (0 to 100 scale, 0 is no effect and 100 is complete control): 100
Rice (Oryza sativa)
  Plant response rating, Rice (0 to 100 scale, 0 is no effect and 100 is complete control): 50
[16]; 16 g ai/ha, 0 to 100 scale
  Foxtail, Green plant response rating: 0
[16]; [29]
  Foxtail, Green plant response rating (0-100): 90
[17]; 16 g ai/ha, 0 to 100 scale
  Wheat plant response rating: 0
[17]; [29]
  Wheat plant response rating (0-100): 70
[18]; 16 g ai/ha, 0 to 100 scale
  Pigweed, Palmer plant response rating: 50
[18]; [29]
  Pigweed, Palmer plant response rating (0-100): 80
Kochia (Bassia scoparia) [19]; 16 g ai/ha, 0 to 100 scale
  Kochia plant response rating: 0
Kochia (Bassia scoparia) [19]; [29]
  Kochia plant response rating (0-100): 40
[20]; 16 g ai/ha, 0 to 100 scale
  Ragweed plant response rating: 0
[20]; [29]
  Ragweed plant response rating (0-100): 0
[21]; 16 g ai/ha, 0 to 100 scale
  Oat, Wild plant response rating: 0
[21]; [29]
  Oat, Wild plant response rating (0-100): 20
[22]; 16 g ai/ha, 0 to 100 scale
  Ryegrass, Italian plant response rating: 10
[22]; [29]
  Ryegrass, Italian plant response rating (0-100): 60
Corn (Zea mays) [23]; 16 g ai/ha, 0 to 100 scale
  Corn plant response rating: 0
Corn (Zea mays) [23]; [29]
  Corn plant response rating (0-100): 50
Soybean (Glycine max) [24]; 16 g ai/ha, 0 to 100 scale
  Soybean plant response rating: 0
Soybean (Glycine max) [24]; [29]
  Soybean plant response rating (0-100): 10
[25]; 16 g ai/ha, 0 to 100 scale
  Blackgrass plant response rating: 0
[25]; [29]
  Blackgrass plant response rating (0-100): 0
[26]; 16 g ai/ha, 0 to 100 scale
  Barnyardgrass plant response rating: 0
[26]; [29]
  Barnyardgrass plant response rating (0-100): 100
